In patent US6689803B2, “Compositions and methods for treating surgical adhesions” (Angiotech Pharmaceuticals, Inc., priority 1996, dated 2004):

Key:
[1] = system: fibrous astrocytes (GFAP); experiment: GFAP and astrocytes in brain, transgenic mouse model of demyelinating disease; type: in vivo; conditions: brain sections, transgenic mice
Excerpt: Three days following the tenth injection, the experimental study was terminated and the brain tissues processed for histological analysis. For light microscopy, tissues were fixed in formalin and embedded in paraffin. Sections were stained with anti-GFAP antibody (DACO), washed and then reacted with secondary antibody conjugated with HPP. The sections were stained for HPP and counter-stained with haematoxylin.

collagenase (MMP-1) mRNA = experiment: IL-1 induced collagenase mRNA expression in chondrocytes (Northern blot); type: cell-based, calf
Procedure: Total RNA was isolated, and the MMP-1 mRNA levels were determined by Northern blot analysis. The blots were subsequently stripped and reprobed with ^32P-radiolabeled rat GAPDH cDNA, which was used as a housekeeping gene. The results shown are representative of four independent experiments. Quantitation of collagenase-1 and stromelysin-expression mRNA levels. The MMP-1 and MMP-3 expression levels were normalized with GAPDH.
Primary chondrocyte cultures were freshly isolated from calf cartilage. The cells were plated at 2.5×10^6 per ml in 100×20 mm culture dishes and incubated in Ham's F12 medium containing 5% FBS overnight at 37° C. […] IL-1 (20 ng/ml) was then added to each plate and the plates incubated for an additional 18 hours. Total RNA was isolated by the acidified guanidine isothiocyanate method and subjected to electrophoresis on a denatured gel. Denatured RNA samples (15 μg) were analyzed by gel electrophoresis in a 1% denatured gel, transferred to a nylon membrane and hydridized with the ^32P-labeled collagenase cDNA probe. ^32P-labeled glyceraldehyde phosphate […] (GAPDH) cDNA as an internal standard to ensure roughly equal loading. The exposed films were scanned and quantitatively analyzed with ImageQuant.

neutrophils = experiment: Neutrophil degranulation assay (myeloperoxidase, lysozyme release); type: cell-based, human
Procedure: Neutrophil viability and purity was always greater than 90%.
One and a half milliliter Eppendorf tubes containing either 25 mg of CPPD or 1 mg of zymosan were preheated to 37° C. 0.5 ml of cells at 37° C. were added followed by vigorous shaking to initiate the reactions. At appropriate times, tubes were centrifuged at 10,000 g for 10 seconds and 0.4 ml of supernatant was stored at −20° C. for later assay.
Lysozyme was measured by the decrease in absorbance at 450 nm of a Micrococcus lysodeikticus suspension. Briefly, Micrococcus lysodeikticus was suspended at 0.1 mg/ml in 65 mM potassium phosphate buffer, pH 6.2 and the absorbance at 450 nm was adjusted to 0.7 units by dilution. The crystal (or zymosan) and cell supernatant (100 μl) was added to 2.5 ml of the Micrococcus suspension and the decrease in absorbance was monitored. Lysozyme standards (chicken egg white) in the 0 to 2000 units/ml range were prepared and a calibration graph of lysozyme concentration against the rate of decrease in the absorbance at 450 nm was obtained.
Myeloperoxidase (MPO) activity was measured by the increase in absorbance at 450 nm that accompanies the oxidation of dianisidine. 7.8 mg of dianisidine was dissolved in 100 ml of 0.1 M citrate buffer, pH 5.5 at […] by sonication. To a 1 ml cuvette, 0.89 ml of the dianisidine solution was added, followed by 50 μl of 1% Triton x 100, 10 μl of a 0.05% hydrogen peroxide in water solution and 50 μl of crystal-cell supernatant. MPO activity was determined from the change in absorbance (450 nm) per minute, Delta Å 450, using the following equation: […]

MS symptoms = experiment: Demyelinating DM20 (ND4) transgenic mouse model of MS; type: in vivo; parameters: key to Seizures / Shaking / Hind Limb Paralysis / Head Tremors: 1+: slight but definite signs; 2+: increase in severity; 3+: signs worsened with limited movement; 4+: very severe signs with loss of motor control (moribund); conditions: micellar paclitaxel 2.5 mg/kg s.c. 3 times per week, 7 injections
Excerpt: These transgenic mice contain 70 copies of the transgene DM20, a myelin proteolipid. Clinically, the animals appear normal up to 3 months of age. After 3 months, evidence of neurological pathology, such as seizures, shaking, hind limb mobility, unsteadiness of gait, limp tail, wobbly gait and reduction in the degree of activity, appear and progressively increase in severity until the animals die between 6 and 8 months of age.
For both of these sets of experiments, dosing was initiated at the clinical onset of disease (approximately 3 to 4 months of age).
Animals were injected with the first dose once the initial signs of MS had reached a score of 1+ for the symptom categories described. The clinical scores and body weight were determined on each injection day and continued three times a week until the end of the study period (6 months of age). Scoring was based on a 1+ to 4+ system, whereby 1+=slight but definite signs, 2+=increase in severity, 3+=signs worsened with limited movement and 4+=very severe signs with loss of motor control (moribund).
Three additional transgenic mice were used as controls and received an equivalent dose of PBS. […] Furthermore, four normal mice were used as controls and administered equivalent volumes of PBS.

[2] = In vitro release of paclitaxel from polymeric formulations; type: physicochemical; conditions: for paclitaxel released: 10 days in PBS
Procedure: The tube was incubated at 37° C. with gentle rotational mixing. […] The supernatant (10 ml) was extracted with 1 ml methylene chloride. […] The injection volume was 20 μl and the flow rate was 1 ml/minute.
An equal volume of PBS was replaced in each tube to maintain sink conditions throughout the study.
Sampling daily (three sampling at the first day) to maintain the sink condition.

[3] = system: restenosis / intimal hyperplasia; experiment: Rat carotid artery balloon injury model of restenosis, perivascular treatment; type: in vivo; conditions: paclitaxel-loaded (20%) polymers (EVA film or PCL paste), 2.5 mg perivascular; 14 and 28 days
Procedure: WISTAR rats weighing 250 to 300 g were anesthetized by the intramuscular injection of Innovar (0.33 ml/kg). Once sedated they were then placed under Halothane anesthesia After general anesthesia was established, fur over the neck region was shaved, the skin clamped and swabbed with betadine. A vertical incision was made over the left carotid artery and the external carotid artery exposed. Two ligatures were placed around the external carotid artery and a transverse arteriotomy was made. […] The endothelium was denuded by passing the inflated balloon up and down the carotid artery three times. The catheter was then removed and the ligature tied off on the left external carotid artery. […] The wound was then closed.

[4] = system: AP-1 DNA binding activity; experiment: IL-1 induced AP-1 DNA binding (gel mobility shift); type: cell-based; conditions: 10^−7 to 10^−5 M, pretreated 24 hours
Procedure: Binding activity was assayed with a radiolabeled human AP-1 sequence probe and gel mobility shift assay. […] The “com” lane contains excess unlabeled AP-1 oligonucleotide. The results shown are representative of tree independent experiments.

[5] = transgenic mice, 6 months of age

CC(=O)O[C@H]1C(=O)[C@@]2(C)[C@H]([C@H](OC(=O)c3ccccc3)[C@]3(O)C[C@H](OC(=O)[C@H](O)[C@@H](NC(=O)c4ccccc4)c4ccccc4)C(C)=C1C3(C)C)[C@]1(OC(C)=O)CO[C@@H]1C[C@@H]2O [paclitaxel]
number of fibrous astrocytes [1]: decreased significantly | concentration inhibiting collagenase expression in vitro (collagenase (MMP-1) mRNA): 10^−6 M | collagenase mRNA levels (collagenase (MMP-1) mRNA; 10^−5 M, pretreatment 24 hours, IL-1): complete inhibition | lysozyme release (neutrophils; 28 μM, plasma opsonized CPPD): reduced lysozyme release | inhibition at 28 µM (neutrophils; Homo sapiens, Neutrophil, 28 μM, opsonized zymosan, after 9 minutes incubation, read-out: inhibition of MPO release): 50% | myeloperoxidase release (neutrophils; plasma opsonized CPPD (FIG. 5A: 28 μM)): significantly inhibited CPPD-induced myeloperoxidase release at all times | Head Tremors (MS symptoms; normal mice): 0 | Hind Limb Paralysis (MS symptoms; normal mice): 0 | Seizures (MS symptoms; normal mice): 0 | Shaking (MS symptoms; normal mice): 0 | Weight Change (MS symptoms; normal mice): −0-5% | Weight Change (MS symptoms; transgenic mice): +5-10% | Head Tremors (MS symptoms; [5]): 1+ | Hind Limb Paralysis (MS symptoms; [5]): 1+ | Seizures (MS symptoms; [5]): 1+ | Shaking (MS symptoms; [5]): 1+ | paclitaxel released ([2]; 5 mg of 30% loaded PLLA microspheres): 400 µg | released fraction of total drug content ([2]; 5% paclitaxel loaded PCL microspheres, after 21 days, PBS 37° C.): about 20% | paclitaxel released ([2]; 10% loaded PLLA microspheres): 150 µg | released paclitaxel ([2]; 20% paclitaxel loaded 0:100 PDLLA:PCL (PCL) paste, within 10 days): 6% | released paclitaxel ([2]; 20% paclitaxel loaded 70:30 PDLLA:PCL paste, within 10 days): 11% | released paclitaxel ([2]; 20% paclitaxel loaded 80:20 PDLLA:PCL paste, within 10 days): 17% | released paclitaxel ([2]; 20% paclitaxel loaded 90:10 PDLLA:PCL paste, within 10 hours): 25-35% | released paclitaxel ([2]; 20% paclitaxel loaded PDLLA-PEG-PDLLA cylinder, 20% PEG, 1 mm, 30 days): 2% | released paclitaxel ([2]; 20% paclitaxel loaded PDLLA-PEG-PDLLA cylinder, 30% PEG, 0.65 mm, 30 days): 26% | released paclitaxel ([2]; 20% paclitaxel loaded PDLLA-PEG-PDLLA cylinder, 30% PEG, 1 mm, 30 days, PBS albumin 37° C.): 17% | drug released ([2]; paclitaxel-nylon microcapsules, after 72 hours): more than 95% | restenosis [3]: completely prevented restenosis | IL-1 induced AP-1 binding activity [4]: decreased
